# Test results reported in article PMC12040169 (PLOS Biology, 2025).
# Experiment: in vitro
# Conditions: human, hela cells, % viability
Compound,"viability at 28.5 h, 10 µM","viability at 28.5 h, 10 µM (bulk resorufin, single well)"
Cc1cccc(CC(=O)N2CCC(Cc3ccc(-c4cccc(C)c4)cc3)(C(N)=O)CC2)c1 [CBK285798],104%,
O=C(Cc1c[nH]c2ccccc12)N1CCCC1c1cccc(Cc2ccccc2F)n1 (stereo not drawn) [CBK285799],89.7%,
CCOc1ccc(C2CCCN2S(=O)(=O)c2c[nH]c(=O)[nH]c2=O)cc1 (stereo not drawn) [CBK285806],92.6%,
CCOc1ccccc1-c1ccccc1NC(=O)c1ccc2c(c1)ncn2C1CC1 [CBK285808],84.3%,
CCOCc1ccc(C(=O)N2CCNC(=O)C2Cc2ccc(-c3cccs3)cc2)cc1 (stereo not drawn) [CBK285811],97.3%,
CN1CCN(C(=O)c2n[nH]c3c2CCCC3)C(Cc2ccc(-c3cccs3)cc2)C1=O (stereo not drawn) [CBK285812],101%,
Cc1ccc2[nH]c(Cc3ccc(NC(=O)c4cccc5c(=O)cc(C)[nH]c45)cc3)nc2c1 [CBK285814],99.5%,
Cc1ccc2[nH]c(Cc3ccc(NC(=O)c4cc(=O)n(C)c5ccccc45)cc3)nc2c1 [CBK285815],98.5%,
Cn1c(=O)c(C(=O)Nc2ccc(OCc3ccccc3F)cc2)nc2ccccc21 [CBK285820],103%,
COc1ccc(-c2ccc(OC)cc2C(=O)Nc2ccc3c(c2)OCC(=O)N3)cc1 [CBK285821],101%,
Cc1ccc2[nH]c(Cc3ccc(NC(=O)CCC4C(=O)Nc5ccccc54)cc3)nc2c1 (stereo not drawn) [CBK285824],91%,
Cc1c(C(=O)Nc2cccc(-c3nc4ccccc4s3)c2)sc2nc[nH]c(=O)c12 [CBK285825],80.5%,
Cc1cc2cc(NC(=O)CCC3C(=O)NC(=O)NC3=O)cc(Cl)c2o1 [CBK285826],,93%
COc1cccc(C(=O)N2CCN(C)C(=O)C2Cc2ccccc2-c2ccccc2)c1OC (stereo not drawn) [CBK285828],109%,
COc1ccc(OC)c(C(=O)N2CCNC(=O)C2Cc2ccccc2-c2ccc(F)cc2)c1 (stereo not drawn) [CBK285829],105%,
Cn1nc(C(C)(C)C)cc1C(=O)N1CCNC(=O)C1Cc1ccccc1-c1ccc(F)cc1 (stereo not drawn) [CBK285830],101%,
O=C1NCCN(C(=O)COc2ccc(F)cc2F)C1Cc1ccccc1-c1cccnc1 (stereo not drawn) [CBK285832],95.6%,
Cc1ccc2[nH]c(-c3cccc(NC(=O)c4ccc(-n5cnnc5)cc4)c3)nc2c1 [CBK285839],94.1%,
COc1c(C)cccc1C(=O)N1CCCCC1c1ncc(C(=O)Nc2ccccc2)c(C)n1 (stereo not drawn) [CBK285841],89.9%,
CCN(Cc1ncc[nH]1)[C@H]1CCO[C@@H](c2ccccc2-c2ccc(OC)cc2)C1 [CBK285842],104%,
CCOc1ccccc1-c1ccccc1NC(=O)c1ccc(-n2nc(C)cc2C)cc1 [CBK285845],54.1%,
COC(C)(C)C(=O)N1CCCC(c2ccc(Cc3ccc(Cl)cc3)cn2)C1 (stereo not drawn) [CBK285846],98.6%,
COc1ccc(CCCC(=O)N2CCC(c3c(C(N)=O)sc4ccccc34)C2)cc1C (stereo not drawn) [CBK285848],94%,
CC1CCN(c2ccc(C(C)NC(=O)CCC3C(=O)NC(=O)NC3=O)cc2)CC1 (stereo not drawn) [CBK285849],,96.9%
COc1cccc(-c2ccc(NC(=O)c3ccc(Cn4cnnn4)cc3)cc2)c1 [CBK285850],93.4%,
CCN(Cc1nccn1CC)[C@H]1CCO[C@@H](c2ccccc2-c2ccc(OC)cc2)C1 [CBK285852],101%,

Compound,"viability at 28.5 h, 10 µM","viability at 28.5 h, 10 µM (bulk resorufin, single well)"
CCN(Cc1cnn(C)c1)[C@H]1CCO[C@@H](c2ccccc2-c2ccc(OC)cc2)C1 [CBK285854],98%,
CCN(C(=O)c1ccc(C)nc1)[C@H]1CCO[C@@H](c2cccc(-c3cc(F)cc(F)c3)c2)C1 [CBK285856],91%,
Cc1ccc(Oc2ccc(CNC(=O)c3sc4nc[nH]c(=O)c4c3C)cc2)cc1 [CBK285857],91.3%,
COc1ccc(CC(=O)N2CCCCC2c2cc(-c3ccc(F)cc3)cc(C)n2)cc1OC (stereo not drawn) [CBK285858],98.8%,
CC(C)NC(=O)c1cc([C@H]2CC[C@H](CNC(=O)Cn3cccn3)CC2)nc2ccccc12 [CBK285859],112%,
Cc1n[nH]cc1C(=O)NC[C@H]1CC[C@H](c2cc(C(=O)NC(C)C)c3ccccc3n2)CC1 [CBK285862],96.3%,
COc1ccc(CC(C(=O)Nc2ccc3nc[nH]c(=O)c3c2)c2ccccc2)cc1 (stereo not drawn) [CBK285863],94.3%,
COc1ccc(-c2ccccc2NC(=O)c2ccc(Cn3cnnn3)cc2)cc1 [CBK285866],96.4%,
CC(C)CNC(=O)c1cc([C@H]2CC[C@H](CNC(=O)c3cnn(C)c3)CC2)nc2ccccc12 [CBK285867],114%,
CNC(=O)c1sc2ccccc2c1C1CN(Cc2cn(C)c3ccc(F)cc23)CCO1 (stereo not drawn) [CBK285868],87.4%,
CC(C)NC(=O)c1sc2ccccc2c1C1CN(C(=O)CC2CCCCC2)CCO1 (stereo not drawn) [CBK285869],91.5%,
Cc1c(C(=O)N2CCC(c3c(C(=O)NC(C)C)sc4ccccc34)C2)[nH]c2ccccc12 (stereo not drawn) [CBK285872],84.8%,
CC(C)NC(=O)c1sc2ccccc2c1C1CCN(C(=O)CCc2ccccc2)C1 (stereo not drawn) [CBK285874],99.2%,
CNC(=O)c1sc2ccccc2c1C1CCN(C(=O)CCN(C)c2ccc(F)cc2)C1 (stereo not drawn) [CBK285878],96.5%,
CNC(=O)c1sc2ccccc2c1C1CCN(Cc2ccc(Oc3ncccn3)cc2)C1 (stereo not drawn) [CBK285881],85.9%,
CNC(=O)c1sc2ccccc2c1C1CCN(Cc2cnn(-c3ccc(F)cc3)c2)C1 (stereo not drawn) [CBK285882],84.1%,
Cc1ccc(CC(=O)N2CCC(c3ncc(C(=O)Nc4ccc(F)cc4)c(C)n3)CC2)cc1 [CBK285884],111%,
Cc1cccc(CC(=O)N2CCC(c3ncc(C(=O)Nc4ccc(F)cc4)c(C)n3)CC2)c1 [CBK285885],101%,
O=c1[nH]cc(S(=O)(=O)N2CCN(Cc3ccccc3Cl)CC2)c(=O)[nH]1 [CBK285889],97.1%,
Cc1nn(C(C)C)c(C)c1CN1CCC(c2c(C(=O)NC(C)C)sc3ccccc23)C1 (stereo not drawn) [CBK285890],95.5%,
CC(=O)NCc1ccc(-c2ccc(C(=O)NC3(c4ccccc4)CCCC3)c(C)n2)cc1 [CBK285891],96%,
CC(=O)N1CCC(c2c(C(=O)Nc3cccc(CN4CCCC4)c3)sc3ccccc23)C1 (stereo not drawn) [CBK285892],110%,
CC(C)NC(=O)c1cc(C2CN(Cc3ccc4ncccc4c3)CCO2)nc2ccccc12 (stereo not drawn) [CBK285895],92.9%,
Cc1ncc(CN2CCOC(c3cc(C(=O)NCC(C)C)c4ccccc4n3)C2)s1 (stereo not drawn) [CBK285897],89.9%,
CC(C)CC(=O)N1CCC(Cc2ccccc2-c2cccs2)(C(=O)NC(C)C)CC1 [CBK285898],87.3%,
CC(C)c1csc(NC(=O)CC2CCN(S(=O)(=O)c3cccc(F)c3)CC2)n1 [CBK285902],83.4%,

Compound,"viability at 28.5 h, 10 µM","viability at 28.5 h, 10 µM (bulk resorufin, single well)"
CC(C)c1nnc(NC(=O)CC2CCN(C(=O)C3(c4ccccc4)CCCC3)CC2)s1 [CBK285905],94.9%,
Cc1ccc(CC(=O)N2CCC(Cc3ccc(-c4cccc(C)c4)cc3)(C(N)=O)CC2)cc1 [CBK285906],89%,
NC(=O)C1(Cc2ccccc2-c2ccccc2)CCN(C(=O)Cc2ccccc2)CC1 [CBK285909],95.9%,
COc1ccc(CC(=O)N2CCC(Cc3ccccc3-c3ccccc3)(C(N)=O)CC2)cc1 [CBK285911],91.8%,
COc1cc(CN2CCC(Cc3ccccc3-c3ccccc3)(C(N)=O)CC2)cc(OC)c1 [CBK285912],88.1%,
COc1cccc(CN2CC=CCC(C3CCN(c4nc(C)cc(C)n4)CC3)C2=O)c1 (stereo not drawn) [CBK285915],85.6%,
CC(C)NC(=O)c1cc(C2CCN(C(=O)CCOc3ccccc3F)C2)nc2ccccc12 (stereo not drawn) [CBK285917],101%,
COc1cccc(C(=O)NC[C@H]2CC[C@H](c3cc(C(N)=O)c4ccccc4n3)CC2)c1OC [CBK285919],88.6%,
CC(C)NC(=O)c1cc(C2CCN(C(=O)CCCc3ccc(F)cc3)C2)nc2ccccc12 (stereo not drawn) [CBK285921],95.2%,
CNC(=O)C1(Cc2ccc(-c3cccc(C)c3)cc2)CCN(C(=O)CC(C)(C)C)CC1 [CBK285923],86.4%,
Cc1cc(C)nc(N2CCCC(O)(c3nc(C)c(CCOc4ccccc4)s3)CC2)n1 (stereo not drawn) [CBK285924],111%,
CC(C)CNC(=O)c1cc(C2CN(Cc3c[nH]nc3C(C)(C)C)CCO2)nc2ccccc12 (stereo not drawn) [CBK285925],104%,
Cc1ccc2c(c1)cc(C(=O)N1CCC(C(=O)NCCc3ccc(Cl)cc3)C1)n2C (stereo not drawn) [CBK285926],103%,
CC(C)NC(=O)c1sc2ccccc2c1C1CCN(S(=O)(=O)c2ccccc2)C1 (stereo not drawn) [CBK285927],83.1%,
Cc1cc(-c2cnc(N)nc2)cc(C2CCCN(C(=O)COc3c(C)cccc3C)C2)n1 (stereo not drawn) [CBK285933],103%,
Cc1cc(-c2cnc(N)nc2)cc(C2CCCN(S(=O)(=O)c3ccc(F)c(C)c3)C2)n1 (stereo not drawn) [CBK285934],105%,
COc1ccc(-c2ccccc2NC(=O)C2CC(=O)N(Cc3cccc(F)c3)C2)cc1 (stereo not drawn) [CBK285937],89.3%,
COc1ccc(CCC(=O)N2CCCC2c2cc(Nc3nccs3)cc(C)n2)cc1 (stereo not drawn) [CBK285939],90%,
O=C(CN1CCCC1c1ccc(Nc2ccc(F)cn2)cn1)Nc1ccc(F)cc1 (stereo not drawn) [CBK285941],106%,
CC(Cc1ccc(N(C)C)cc1)NC(=O)C1CN(S(=O)(=O)c2ccc(F)cc2)C1 (stereo not drawn) [CBK285942],114%,
Cn1c(-c2ccccc2)cnc1NC(=O)C1CN(S(=O)(=O)c2ccc(F)cc2)C1 [CBK285945],98.4%,
O=C(CCn1c(=O)oc2ccccc21)Nc1ccc2c(c1)CN(Cc1ccccc1)C2 [CBK285946],120%,
COc1cccc2[nH]c(C(=O)N3CCOC(c4cccc(-c5c(F)cccc5F)n4)C3)cc12 (stereo not drawn) [CBK285948],110%,
O=c1[nH]c(=O)c2cc(S(=O)(=O)N3CCc4[nH]c5ccccc5c4C3)ccc2[nH]1 [CBK285949],96.7%,
Cc1cccc(CNC(=O)CC2CCN(Cc3cccc(C(F)(F)F)c3)CC2)n1 [CBK285950],105%,
Cn1c(=O)oc2cc(NC(=O)CC3CCN(Cc4cccc(C(F)(F)F)c4)CC3)ccc21 [CBK285953],90%,
